ChEMBL document CHEMBL1126797 (J Med Chem, 1993)
pIC50: −log10 of the molar value.

Experiments:
DNA topoisomerase 1 [1] = target: T1, DNA topoisomerase 1 (Homo sapiens, UniProt P11387); experiment: Inhibition of Topoisomerase I by cleavage complex formation in human HL-60 cells; assay type: cell-based
T1 sequence (P11387 whole entry): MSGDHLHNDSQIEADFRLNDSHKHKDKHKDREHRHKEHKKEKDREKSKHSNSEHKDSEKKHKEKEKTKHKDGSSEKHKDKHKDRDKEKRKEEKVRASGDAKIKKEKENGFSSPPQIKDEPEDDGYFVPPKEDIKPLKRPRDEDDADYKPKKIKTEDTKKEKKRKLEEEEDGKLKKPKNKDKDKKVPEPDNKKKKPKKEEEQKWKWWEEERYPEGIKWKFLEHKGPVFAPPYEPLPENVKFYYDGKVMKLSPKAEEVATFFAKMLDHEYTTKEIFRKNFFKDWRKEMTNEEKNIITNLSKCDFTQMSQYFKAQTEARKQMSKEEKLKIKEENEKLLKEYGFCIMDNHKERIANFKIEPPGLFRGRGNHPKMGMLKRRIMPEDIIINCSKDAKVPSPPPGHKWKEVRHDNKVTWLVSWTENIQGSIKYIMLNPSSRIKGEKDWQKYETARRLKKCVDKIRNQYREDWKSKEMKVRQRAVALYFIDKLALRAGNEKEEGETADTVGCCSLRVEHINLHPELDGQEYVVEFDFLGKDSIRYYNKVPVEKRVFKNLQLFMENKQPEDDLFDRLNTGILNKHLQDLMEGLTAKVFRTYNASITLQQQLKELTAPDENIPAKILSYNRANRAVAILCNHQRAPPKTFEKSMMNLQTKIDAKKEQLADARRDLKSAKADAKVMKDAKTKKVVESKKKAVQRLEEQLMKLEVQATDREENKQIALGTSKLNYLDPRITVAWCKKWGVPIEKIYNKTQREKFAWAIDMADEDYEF

DNA topoisomerase 1 [2] = target: T1, DNA topoisomerase 1; experiment: Inhibition of Topoisomerase I by cleavage complex formation in intact human HL-60 cells; assay type: cell-based
Mus musculus [3] = species: Mus musculus; experiment: Number of L1210 lymphoid leukemic mice cured out of […]; assay type: functional
Mus musculus [4] = experiment: Highest active dose in L1210 lymphoid leukemic mice at dose range of 2.37-8 mg/kg; assay type: functional
Mus musculus [5] = species: Mus musculus; experiment: Percent median survival time of treated leukemic mice compared to control; assay type: functional
Mus musculus [6] = species: Mus musculus; experiment: Toxic dose in L1210 lymphoid leukemic mice; assay type: toxicity, organism-based; settings: in vivo
L1210 [7] = experiment: Log of initial tumor cell population minus log of tumor cell population at end of treatment in L1210 lymphoid leukemic mice; assay type: functional, Mus musculus
Mus musculus [8] = experiment: Relative survival in RAW117-H10 cells implanted mice in comparison to control at dose of 3 mg/kg; assay type: functional
HT-29 [9] = experiment: Tumor volume in HT-29 cells after subcutaneous administration on days 16,20,23,27,30,34,37,41,44,48 at dose of 3 mg/kg; assay type: functional, Homo sapiens
[10] = Number of metastases in K1735-M2 murine melanoma cells after subcutaneous administration on days1,4,6,8 at dose of 3 mg/kg; assay type: functional, Mus musculus
Mus musculus [11] = experiment: Relative survival in L1210 lymphoid leukemic mice after subcutaneous administration on days 1,4,6,8 at dose of 3 mg/kg; assay type: functional
L1210 [12] = experiment: Toxic dose in L1210 murine lymphoid leukemia at 20 mg/kg after i.v. drug dosing on hours 1 and 5; NT means not toxic; assay type: toxicity, organism-based; set-up: dose 20 mg/kg, route intravenous; settings: mouse, in vivo, iv
Mus musculus [13] = experiment: Highest active dose in L1210 lymphoid leukemic mice at range of 1.25-20 mg/kg after i.v. drug dosing on hours 1 and 5; assay type: functional
Mus musculus [14] = experiment: Number of L1210 mice cured after i.v. drug dosing on hours 1 and 5; assay type: functional
L1210 [15] = experiment: Log of initial tumor cell population minus log of tumor cell population at end of treatment after i.v. drug dosing on hours 1 and 5; assay type: functional, Mus musculus
Mus musculus [16] = experiment: Relative survival in RAW117-H10 cells implanted mice in comparison to control at dose of 2.5 mg/kg; assay type: functional
HT-29 [17] = experiment: Tumor volume in HT-29 cells after subcutaneous administration on days 16,20,23,27,30,34,37,41,44,48 at dose of 2.5 mg/kg; assay type: functional, Homo sapiens
[18] = Number of metastases in K1735-M2 murine melanoma cells after subcutaneous administration at dose of 2.5 mg/kg; assay type: functional, Mus musculus
Mus musculus [19] = experiment: Relative survival in L1210 lymphoid leukemic mice after subcutaneous administration on days 1,4,6,8 at dose of 4 mg/kg; assay type: functional
Mus musculus [20] = experiment: Highest active dose in L1210 lymphoid leukemic mice at dose range of 0.6-5 mg/kg; assay type: functional

**Q.** With `CC[C@@]1(O)C(=O)OCc2c1cc1n(c2=O)Cc2cc3cc(C)ccc3nc2-1` as the molecule, how does the pIC50 (DNA topoisomerase 1 [1]) read?
**A.** Its pIC50 is 6.52.

**Q.** With `CCC1(O)C(=O)OCc2c1cc1n(c2=O)Cc2cc3c([N+](=O)[O-])c4c(cc3nc2-1)OCO4` (racemic) as the molecule, how does the pIC50 (DNA topoisomerase 1 [1]) read?
**A.** Its pIC50 is 6.66.

**Q.** With `CCC1(O)C(=O)OCc2c1cc1n(c2=O)Cc2cc3c(N)cccc3nc2-1` (racemic) [RS-9-Aminocamptothecin] as the molecule, how does the pIC50 (DNA topoisomerase 1 [1]) read?
**A.** The pIC50 was 6.36.

**Q.** What about the pIC50 (DNA topoisomerase 1 [2]) of the same molecule?
**A.** Its pIC50 is 6.08.

**Q.** With `CC[C@@]1(O)C(=O)OCc2c1cc1n(c2=O)Cc2cc3c(C)cccc3nc2-1` as the molecule, how does the pIC50 (DNA topoisomerase 1 [1]) read?
**A.** Its pIC50 is 7.42.

**Q.** What about the Cures (Mus musculus [3]) of the same molecule?
**A.** The Cures was 4.

**Q.** And the Highest active dose (Mus musculus [4])?
**A.** Its Highest active dose is 8 mg/kg.

**Q.** And the T/C (Mus musculus [5])?
**A.** Its T/C is 274%.

**Q.** What about the Toxic dose (Mus musculus [6]) of the same molecule?
**A.** The Toxic dose was 12 mg/kg.

**Q.** And the KE (L1210 [7])?
**A.** The KE was 5.6.

**Q.** Which T/C (Mus musculus [8]) does the source give for `CC[C@@]1(O)C(=O)OCc2c1cc1n(c2=O)Cc2cc3cc4c(cc3nc2-1)OCO4` here?
**A.** Its T/C is 1.33.

**Q.** What about the Control (HT-29 [9]) of the same molecule?
**A.** Its Control is 18%.

**Q.** What about the Control [10] of the same molecule?
**A.** Its Control is 9%.

**Q.** What about the T/C (Mus musculus [11]) of the same molecule?
**A.** The T/C was 1.49.

**Q.** For `CCC1(OC(=O)CN)C(=O)OCc2c1cc1n(c2=O)Cc2cc3cc(N)ccc3nc2-1.Cl` (racemic), which Toxic dose (L1210 [12]) is on record?
**A.** Its Toxic dose is “Non-toxic”.

**Q.** And the T/C (Mus musculus [5])?
**A.** Its T/C is 225%.

**Q.** What about the Highest active dose (Mus musculus [13]) of the same molecule?
**A.** The Highest active dose was 20 mg/kg.

**Q.** And the Cures (Mus musculus [14])?
**A.** Its Cures is 0.

**Q.** And the KE (L1210 [15])?
**A.** Its KE is >5.97.

**Q.** With `CC1(O)C(=O)OCc2c1cc1n(c2=O)Cc2cc3ccccc3nc2-1` (racemic) as the molecule, how does the pIC50 (DNA topoisomerase 1 [1]) read?
**A.** Its pIC50 is 5.40.

**Q.** With `CC[C@@]1(O)C(=O)OCc2c1cc1n(c2=O)Cc2cc3cc(Cl)ccc3nc2-1` as the molecule, how does the pIC50 (DNA topoisomerase 1 [1]) read?
**A.** Its pIC50 is 6.85.

**Q.** With `CCC1(O)C(=O)OCc2c1cc1n(c2=O)Cc2cc3c(F)cccc3nc2-1` (configuration not stated) as the molecule, how does the pIC50 (DNA topoisomerase 1 [1]) read?
**A.** Its pIC50 is 6.80.

**Q.** With `CC[C@@]1(O)C(=O)OCc2c1cc1n(c2=O)Cc2cc3c(O)cccc3nc2-1` as the molecule, how does the pIC50 (DNA topoisomerase 1 [1]) read?
**A.** The pIC50 was 6.06.

**Q.** With `CC[C@](O)(C(=O)O)c1cc2n(c(=O)c1CO)Cc1cc3c(N)c4c(cc3nc1-2)OCO4` as the molecule, how does the pIC50 (DNA topoisomerase 1 [1]) read?
**A.** The pIC50 was < 4.52.

**Q.** With `CCC1(O)C(=O)OCc2c1cc1n(c2=O)Cc2cccnc2-1` (racemic) as the molecule, how does the pIC50 (DNA topoisomerase 1 [1]) read?
**A.** Its pIC50 is < 4.52.

**Q.** With `CC[C@@]1(O)C(=O)OCc2c1cc1n(c2=O)Cc2cc3c(N)cccc3nc2-1` [9-AMINOCAMPTOTHECIN] as the molecule, how does the T/C (Mus musculus [16]) read?
**A.** Its T/C is 1.15.

**Q.** What about the pIC50 (DNA topoisomerase 1 [1]) of the same molecule?
**A.** The pIC50 was 6.96.

**Q.** And the Cures (Mus musculus [3])?
**A.** The Cures was 3.

**Q.** What about the Control (HT-29 [17]) of the same molecule?
**A.** The Control was 25%.

**Q.** And the Control [18]?
**A.** The Control was 73%.

**Q.** And the T/C (Mus musculus [19])?
**A.** The T/C was 2.44.

**Q.** And the T/C (Mus musculus [5])?
**A.** The T/C was 361%.

**Q.** And the Toxic dose (Mus musculus [6])?
**A.** The Toxic dose was 10 mg/kg.

**Q.** And the KE (L1210 [7])?
**A.** Its KE is 5.97.

**Q.** What about the Highest active dose (Mus musculus [20]) of the same molecule?
**A.** The Highest active dose was 0.6 mg/kg.

**Q.** What does the source list for `CCC1(O)C(=O)OCc2c1cc1n(c2=O)Cc2cc3c(N)c4c(cc3nc2-1)OCO4` (racemic)?
**A.** pIC50 (DNA topoisomerase 1 [1]): 7.12; pIC50 (DNA topoisomerase 1 [2]): 7.16; T/C (Mus musculus [8]): 1.6; Control [10]: 25%; T/C (Mus musculus [11]): 3

**Q.** With `CCC1(O)C(=O)OCc2c1cc1n(c2=O)Cc2cc3cc(F)ccc3nc2-1` (configuration not stated) as the molecule, how does the pIC50 (DNA topoisomerase 1 [1]) read?
**A.** Its pIC50 is 6.43.

**Q.** With `O=C1OCc2c(cc3n(c2=O)Cc2cc4ccccc4nc2-3)C1(O)CCBr` (racemic) as the molecule, how does the pIC50 (DNA topoisomerase 1 [1]) read?
**A.** Its pIC50 is 5.51.

**Q.** With `CCC1(O)C(=O)OCc2c1cc1n(c2=O)Cc2cc3cc(C(=O)O)ccc3nc2-1` (configuration not stated) as the molecule, how does the pIC50 (DNA topoisomerase 1 [1]) read?
**A.** The pIC50 was 6.00.

**Q.** With `CCC1(O)C(=O)OCc2c1cc1n(c2=O)Cc2cc3c(OC)cccc3nc2-1` (racemic) as the molecule, how does the pIC50 (DNA topoisomerase 1 [1]) read?
**A.** The pIC50 was 5.80.

**Q.** With `CCC(O)(C(=O)O)c1cc2n(c(=O)c1CO)Cc1cc3c(N)cccc3nc1-2` (racemic) as the molecule, how does the pIC50 (DNA topoisomerase 1 [1]) read?
**A.** Its pIC50 is 4.89.

**Q.** With `CC[C@@](O)(C(=O)O)c1cc2n(c(=O)c1CO)Cc1cc3ccccc3nc1-2` as the molecule, how does the pIC50 (DNA topoisomerase 1 [1]) read?
**A.** The pIC50 was 4.92.

**Q.** With `CCC(O)(C(=O)O)c1cc2n(c(=O)c1CO)Cc1cc3ccccc3nc1-2` (racemic) as the molecule, how does the pIC50 (DNA topoisomerase 1 [1]) read?
**A.** The pIC50 was 5.70.
